Measured values as given in PubChem BioAssay AID330 (DTP/NCI, 2004).
Several values for one entry are separate records, joined by “and”; a condition that tells them apart may be missing. Equal values may be shown once. Toxic doses and inconclusive results are not listed. Rule for the calls: active = survival T/C of 150% or more; inactive = T/C below 125% in these data.

Test system: P388 leukemia ip, CD2F1 mice, survival T/C
Assay: NCI In Vivo Anticancer Drug Screen. Data for tumor model P388 Leukemia (intraperitoneal) in CD2F1 (CDF1) mice
Settings: endpoint: median survival time, higher = longer survival
Outline: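 Mice carrying the transplanted tumor received test compound or vehicle. Survival was recorded in each group, and the value is the treated-group measurement divided by that of the vehicle-treated control group.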

[1] = dose: 60.0 mg/kg/injection, schedule: Q01DX005 (ip), vehicle: Klucel (hydroxypropylcellulose) (HPC)
[2] = dose: 120.0 mg/kg/injection, schedule: Q01DX005 (ip), vehicle: Klucel (hydroxypropylcellulose) (HPC)
[3] = dose: 240.0 mg/kg/injection, schedule: Q01DX005 (ip), vehicle: Klucel (hydroxypropylcellulose) (HPC)
[4] = dose: 50.0 mg/kg/injection, schedule: Q01DX005 (ip), vehicle: Klucel (hydroxypropylcellulose) (HPC)
[5] = dose: 100.0 mg/kg/injection, schedule: Q01DX005 (ip), vehicle: Klucel (hydroxypropylcellulose) (HPC)
[6] = dose: 200.0 mg/kg/injection, schedule: Q01DX005 (ip), vehicle: Klucel (hydroxypropylcellulose) (HPC)
[7] = dose: 50.0 mg/kg/injection, schedule: Q01DX009 (ip), vehicle: Klucel (hydroxypropylcellulose) (HPC)
[8] = dose: 100.0 mg/kg/injection, schedule: Q01DX009 (ip), vehicle: Klucel (hydroxypropylcellulose) (HPC)
[9] = dose: 50.0 mg/kg/injection, schedule: Q01DX009 (ip), vehicle: saline with Tween-80
[10] = dose: 100.0 mg/kg/injection, schedule: Q01DX009 (ip), vehicle: saline with Tween-80
[11] = dose: 200.0 mg/kg/injection, schedule: Q01DX009 (ip), vehicle: saline with Tween-80

Measured: T/C

Cc1ccc(N=CNN(C)S(=O)(=O)c2ccc(C)cc2)cc1
inactive: [1] 92 % of control | [2] 108 % of control | [3] 90 % of control

C/C(=C1/N=C(c2ccccc2)OC1=O)c1cccs1
inactive: [4] 106 % of control | [5] 100 % of control | [6] 96 % of control

O=C(Nc1cccc(Cl)c1)N1CCNC1=S
inactive: [7] 102 % of control | [8] 104 % of control

C/C1=C(O[Si](C)(C)C)/C(O[Si](C)(C)C)=C(/C)CCCC1
inactive: [9] 100 % of control | [10] 94 % of control | [11] 97 % of control

Cc1ccc(S(=O)(=O)N/N=C/c2ccc(Cl)cc2O)cc1
inactive: dose: 12.5 mg/kg/injection, schedule: Q01DX005 (ip), vehicle: distilled water + Tween-80 102 % of control | dose: 25.0 mg/kg/injection, schedule: Q01DX005 (ip), vehicle: distilled water + Tween-80 99 % of control | dose: 50.0 mg/kg/injection, schedule: Q01DX005 (ip), vehicle: distilled water + Tween-80 100 % of control | dose: 100.0 mg/kg/injection, schedule: Q01DX005 (ip), vehicle: distilled water + Tween-80 100 % of control | dose: 200.0 mg/kg/injection, schedule: Q01DX005 (ip), vehicle: distilled water + Tween-80 100 % of control

CC1=NCCN=C(C)C1N=Nc1ccccc1
inactive: dose: 100.0 mg/kg/injection, schedule: Q04DX003 (ip), vehicle: saline with Tween-80 90 % of control | dose: 200.0 mg/kg/injection, schedule: Q04DX003 (ip), vehicle: saline with Tween-80 90 % of control

O=c1[nH]c2ccccc2n1CCCN1CCN(C(c2ccccc2)c2ccccc2)CC1
inactive: [9] 102 % of control | [10] 94 % of control | [11] 95 % of control

S=C(NCc1ccccc1)N1CCC(CCCC2CCN(C(=S)NCc3ccccc3)CC2)CC1
inactive: [1] 92 % of control | [2] 91 % of control | [3] 88 % of control

CC1=C(C#N)C(C)(C)C(C#N)=C(C)N1
inactive: dose: 12.5 mg/kg/injection, schedule: Q01DX009 (ip), vehicle: other 108 % of control | dose: 25.0 mg/kg/injection, schedule: Q01DX009 (ip), vehicle: other 106 % of control | dose: 50.0 mg/kg/injection, schedule: Q01DX009 (ip), vehicle: other 92 % of control

N=C1SCc2ccc3ccccc3c21
inactive: [9] 100 % of control | [10] 124 % of control | dose: 400.0 mg/kg/injection, schedule: Q01DX009 (ip), vehicle: saline with Tween-80 97 % of control

C1CC[N-]CC1.C1CC[N-]CC1.[Cl][Pt+2][Cl]
inactive: dose: 25.0 mg/kg/injection, schedule: Q01DX005 (ip), vehicle: Klucel (hydroxypropylcellulose) (HPC) 119 % of control and 120 % of control

C=Cn1c([N+](=O)[O-])cnc1/C=C/c1ccc(C(=O)OCCN2CCCCC2)cc1
inactive: dose: 100.0 mg/kg/injection, schedule: Q04DX002 (ip), vehicle: saline with Tween-80 90 % of control | dose: 100.0 mg/kg/injection, schedule: Q04DX003 (ip), vehicle: Klucel (hydroxypropylcellulose) (HPC) 105 % of control | dose: 200.0 mg/kg/injection, schedule: Q04DX002 (ip), vehicle: saline with Tween-80 90 % of control | dose: 200.0 mg/kg/injection, schedule: Q04DX003 (ip), vehicle: Klucel (hydroxypropylcellulose) (HPC) 102 % of control | dose: 400.0 mg/kg/injection, schedule: Q04DX002 (ip), vehicle: saline with Tween-80 90 % of control | dose: 400.0 mg/kg/injection, schedule: Q04DX003 (ip), vehicle: Klucel (hydroxypropylcellulose) (HPC) 102 % of control

CCCCCCCOc1ccc(OCCCC[N+]2(CC)CCCCC2)cc1
inactive: dose: 1.56 mg/kg/injection, schedule: Q01DX009 (ip), vehicle: saline 103 % of control | dose: 3.12 mg/kg/injection, schedule: Q01DX009 (ip), vehicle: saline 100 % of control | dose: 6.25 mg/kg/injection, schedule: Q01DX009 (ip), vehicle: saline 102 % of control

NC(N)=NS(=O)(=O)c1ccc(N=CC2C(=O)N(c3ccccc3)N(c3ccccc3)C2=O)cc1
inactive: [7] 92 % of control | [8] 92 % of control | dose: 200.0 mg/kg/injection, schedule: Q01DX009 (ip), vehicle: Klucel (hydroxypropylcellulose) (HPC) 100 % of control

Cn1c(C(C)(O)c2cc3c(Cl)nccc3n2C)cc2c(Cl)nccc21
inactive: [4] 103 % of control | [5] 105 % of control | [6] 106 % of control
